Active and inactive are the calls of the source. No rule for the calls is given here.
Tested on: rodent lifetime carcinogenesis bioassay, tumor incidence TD50
Assay: carcinogenic potency in animals, long-term in vivo studies, CPDB compilation (AID 1745844)
[1] = mouse, strain B6C3F1, females, by gavage, site: liver, lesion: hepatocellular adenoma + hepatocellular carcinoma + neoplastic nodule, dosed 103 weeks, study length 104 weeks
[2] = mouse, strain B6C3F1, females, by gavage, site: lung, lesion: alveolar/bronchiolar adenoma + alveolar/bronchiolar carcinoma, dosed 103 weeks, study length 104 weeks
[3] = mouse, strain B6C3F1, males, by gavage, site: any site (literature study), lesion: several types, types named in the paper, dosed 103 weeks, study length 104 weeks
[4] = mouse, strain B6C3F1, males, by gavage, site: liver, lesion: hepatocellular adenoma + hepatocellular carcinoma + neoplastic nodule, dosed 103 weeks, study length 104 weeks
[5] = rat, strain Fischer 344, females, by gavage, site: any site (literature study), lesion: several types, types named in the paper, dosed 103 weeks, study length 104 weeks
[6] = rat, strain Fischer 344, males, by gavage, site: any site (literature study), lesion: several types, types named in the paper, dosed 103 weeks, study length 104 weeks

For `O=C1OC2(c3ccccc31)c1cc(I)c(O)c(I)c1Oc1c2cc(I)c(O)c1I`, the carcinogen call (mouse, strain Charles River CD1, females, in feed, site: any site (literature study), lesion: benign tumor, dosed 104 weeks, study length 104 weeks) was “negative (inactive)”, the carcinogen call (mouse, strain Charles River CD1, females, in feed, site: any site (literature study), lesion: malignant tumor, dosed 104 weeks, study length 104 weeks) was “negative (inactive)” and the carcinogen call (mouse, strain Charles River CD1, females, in feed, site: any site (literature study), lesion: several types, types named in the paper, dosed 104 weeks, study length 104 weeks) was “negative (inactive)”. For the same molecule, the TD50 (mouse, strain Charles River CD1, males, in feed, site: all sites, lesion: lymphocytic lymphoma, dosed 104 weeks, study length 104 weeks) was 3140 mg/kg/day (inactive), the TD50 (mouse, strain Charles River CD1, males, in feed, site: any site (literature study), lesion: benign tumor, dosed 104 weeks, study length 104 weeks) was 25900 mg/kg/day (inactive) and the TD50 (mouse, strain Charles River CD1, males, in feed, site: any site (literature study), lesion: malignant tumor, dosed 104 weeks, study length 104 weeks) was 87600 mg/kg/day (inactive). For the same molecule, the TD50 (mouse, strain Charles River CD1, males, in feed, site: any site (literature study), lesion: several types, types named in the paper, dosed 104 weeks, study length 104 weeks) was 17000 mg/kg/day, the TD50 (rat, strain Osborne-Mendel, both sexes, by gavage, site: all sites, lesion: lymphosarcoma, dosed 85 weeks, study length 104 weeks) was 122 mg/kg/day (inactive) and the carcinogen call (rat, strain Osborne-Mendel, both sexes, by gavage, site: any site (literature study), lesion: malignant tumor, dosed 85 weeks, study length 104 weeks) was “negative (inactive)”. For the same molecule, the carcinogen call (rat, strain Osborne-Mendel, both sexes, by gavage, site: liver, lesion: one or several types, types not named, dosed 85 weeks, study length 104 weeks) was “negative (inactive)”, the TD50 (rat, strain Osborne-Mendel, both sexes, in feed, site: any site (literature study), lesion: malignant tumor, dosed 86 weeks, study length 104 weeks) was 14100 mg/kg/day (inactive) and the TD50 (rat, strain Osborne-Mendel, both sexes, in feed, site: liver, lesion: hepatoma, dosed 86 weeks, study length 104 weeks) was 84900 mg/kg/day (inactive). For the same molecule, the carcinogen call (rat, strain Osborne-Mendel, females, in feed, site: any site (literature study), lesion: several types, types named in the paper, dosed 104 weeks, study length 104 weeks) was “negative (inactive)”, the TD50 (rat, strain Osborne-Mendel, males, in feed, site: any site (literature study), lesion: several types, types named in the paper, dosed 104 weeks, study length 104 weeks) was 4810 mg/kg/day (inactive) and the carcinogen call (rat, strain Slc-Wistar, females, in feed, site: any site (literature study), lesion: several types, types named in the paper, dosed 52 weeks, study length 52 weeks) was “negative (inactive)”. For the same molecule, the carcinogen call (rat, strain Slc-Wistar, females, in feed, site: liver, lesion: one or several types, types not named, dosed 52 weeks, study length 52 weeks) was “negative (inactive)”, the carcinogen call (rat, strain Slc-Wistar, males, in feed, site: any site (literature study), lesion: several types, types named in the paper, dosed 52 weeks, study length 52 weeks) was “negative (inactive)” and the carcinogen call (rat, strain Slc-Wistar, males, in feed, site: liver, lesion: one or several types, types not named, dosed 52 weeks, study length 52 weeks) was “negative (inactive)”. For the same molecule, the carcinogen call (rat, strain Sprague-Dawley, females, in feed, site: any site (literature study), lesion: one or several types, types not named, dosed 52 weeks, study length 52 weeks) was “negative (inactive)” and the carcinogen call (rat, strain Sprague-Dawley, females, in feed, site: liver, lesion: one or several types, types not named, dosed 52 weeks, study length 52 weeks) was “negative (inactive)”.
With `CCCCC(CC)COP(=O)(OCC(CC)CCCC)OCC(CC)CCCC` (stereo not drawn) the TD50 [1] was 2220 mg/kg/day, the TD50 (mouse, strain B6C3F1, females, by gavage, site: liver, lesion: hepatocellular adenoma + hepatocellular carcinoma, dosed 103 weeks, study length 104 weeks) was 2220 mg/kg/day and the TD50 (mouse, strain B6C3F1, females, by gavage, site: liver, lesion: hepatocellular carcinoma, dosed 103 weeks, study length 104 weeks) was 2560 mg/kg/day. The TD50 [2] was 13700 mg/kg/day, the carcinogen call [3] was “negative (inactive)” and the TD50 [4] was 9000 mg/kg/day. For the same molecule, the TD50 [5] was 230000 mg/kg/day (inactive), the TD50 (rat, strain Fischer 344, males, by gavage, site: adrenal gland, lesion: pheochromocytoma + pheochromocytoma, malignant, dosed 103 weeks, study length 104 weeks) was 5290 mg/kg/day and the TD50 (rat, strain Fischer 344, males, by gavage, site: adrenal gland, lesion: pheochromocytoma, dosed 103 weeks, study length 104 weeks) was 5290 mg/kg/day. For the same molecule, the TD50 [6] was 14200 mg/kg/day, the TD50 (rat, strain Fischer 344, males, by gavage, site: thyroid gland + thyroid follicle, lesion: follicular-cell adenoma + cystadenoma, NOS, dosed 103 weeks, study length 104 weeks) was 28000 mg/kg/day and the TD50 (rat, strain Fischer 344, males, by gavage, site: thyroid gland + thyroid follicle, lesion: follicular-cell adenoma + follicular-cell carcinoma + cystadenoma, NOS, dosed 103 weeks, study length 104 weeks) was 16700 mg/kg/day.
For `C[C@]12CC[C@H]3C(=CCc4cc(OS(=O)(=O)O)ccc43)[C@@H]1CCC2=O`, the carcinogen call (rat, strain Charles River CD (Sprague-Dawley), females, in feed, site: liver, lesion: one or several types, types not named, dosed 104 weeks, study length 104 weeks) was “negative (inactive)” and the carcinogen call (rat, strain Charles River CD (Sprague-Dawley), males, in feed, site: liver, lesion: hepatoma, dosed 104 weeks, study length 104 weeks) was “negative (inactive)”.
With `C=CCN(CC(C)=O)N=O` the TD50 (hamster, strain Syrian Golden, females, by gavage, site: liver, lesion: cholangiocarcinoma, dosed 40 weeks, study length 55 weeks) was 21.2 mg/kg/day, the TD50 (hamster, strain Syrian Golden, females, by gavage, site: liver, lesion: hepatocellular adenoma, dosed 40 weeks, study length 55 weeks) was 4.87 mg/kg/day and the TD50 (hamster, strain Syrian Golden, females, by gavage, site: liver, lesion: several types, types named in the paper, dosed 40 weeks, study length 55 weeks) was 3.78 mg/kg/day. It also gave a TD50 (hamster, strain Syrian Golden, females, by gavage, site: nasal mucosa, lesion: carcinoma, dosed 40 weeks, study length 55 weeks) of 1.36 mg/kg/day, a TD50 (hamster, strain Syrian Golden, females, by gavage, site: nasal mucosa, lesion: several types, types named in the paper, dosed 40 weeks, study length 55 weeks) of 1.19 mg/kg/day and a TD50 (rat, strain Fischer 344, females, in drinking water, site: esophagus, lesion: several types, types named in the paper, dosed 50 weeks, study length 85 weeks) of 1.25 mg/kg/day. The TD50 (rat, strain Fischer 344, females, in drinking water, site: liver, lesion: hepatocellular carcinoma, dosed 50 weeks, study length 85 weeks) was 0.335 mg/kg/day.
`CC(C)COC(=O)c1ccc(O)cc1` was tested, and the TD50 (mouse, strain ICR/Jcl, females, in feed, site: any site (literature study), lesion: several types, types named in the paper, dosed 102 weeks, study length 106 weeks) was 12300 mg/kg/day (inactive), the carcinogen call (mouse, strain ICR/Jcl, females, in feed, site: liver, lesion: one or several types, types not named, dosed 102 weeks, study length 106 weeks) was “negative (inactive)” and the TD50 (mouse, strain ICR/Jcl, females, in feed, site: lung, lesion: one or several types, types not named, dosed 102 weeks, study length 106 weeks) was 37200 mg/kg/day (inactive). The TD50 (mouse, strain ICR/Jcl, males, in feed, site: any site (literature study), lesion: several types, types named in the paper, dosed 102 weeks, study length 104 weeks) was 6570 mg/kg/day (inactive), the TD50 (mouse, strain ICR/Jcl, males, in feed, site: liver, lesion: one or several types, types not named, dosed 102 weeks, study length 104 weeks) was 26300 mg/kg/day (inactive) and the carcinogen call (mouse, strain ICR/Jcl, males, in feed, site: lung, lesion: one or several types, types not named, dosed 102 weeks, study length 104 weeks) was “negative (inactive)”.
`O=CCC=O` was tested, and the TD50 (mouse, strain B6C3F1, females, by gavage, site: any site (literature study), lesion: several types, types named in the paper, dosed 103 weeks, study length 104 weeks) was 274 mg/kg/day (inactive), the TD50 [1] was 568 mg/kg/day and the TD50 [2] was 4410 mg/kg/day. For the same molecule, the TD50 [3] was 217 mg/kg/day (inactive), the TD50 [4] was 230 mg/kg/day and the TD50 (mouse, strain B6C3F1, males, by gavage, site: lung, lesion: alveolar/bronchiolar adenoma + alveolar/bronchiolar carcinoma, dosed 103 weeks, study length 104 weeks) was 1130 mg/kg/day. For the same molecule, the TD50 (mouse, strain Swiss, females, in drinking water, site: liver, lesion: hemangioma, dosed 52 weeks, study length 52 weeks) was 24.8 mg/kg/day, the TD50 (mouse, strain Swiss, females, in drinking water, site: liver, lesion: hepatoma, dosed 52 weeks, study length 52 weeks) was 4.62 mg/kg/day and the TD50 (mouse, strain Swiss, females, in drinking water, site: liver, lesion: hyperplastic nodule, dosed 52 weeks, study length 52 weeks) was 44.3 mg/kg/day. For the same molecule, the TD50 (mouse, strain Swiss, females, in drinking water, site: liver, lesion: several types, types named in the paper, dosed 52 weeks, study length 52 weeks) was 14.1 mg/kg/day, the carcinogen call (mouse, strain Swiss, females, in drinking water, site: lung, lesion: adenoma, dosed 52 weeks, study length 52 weeks) was “negative (inactive)” and the TD50 [5] was 164 mg/kg/day. The TD50 (rat, strain Fischer 344, females, by gavage, site: liver, lesion: hepatocellular adenoma + hepatocellular carcinoma + neoplastic nodule, dosed 103 weeks, study length 104 weeks) was 1950 mg/kg/day, the TD50 (rat, strain Fischer 344, females, by gavage, site: thyroid gland, lesion: follicular-cell adenoma + follicular-cell carcinoma, dosed 103 weeks, study length 104 weeks) was 252 mg/kg/day and the TD50 (rat, strain Fischer 344, males, by gavage, site: adrenal gland, lesion: cortical adenoma, dosed 103 weeks, study length 104 weeks) was 566 mg/kg/day. It also gave a TD50 (rat, strain Fischer 344, males, by gavage, site: adrenal medulla, lesion: pheochromocytoma, dosed 103 weeks, study length 104 weeks) of 184 mg/kg/day, a TD50 [6] of 41.8 mg/kg/day and a TD50 (rat, strain Fischer 344, males, by gavage, site: liver, lesion: hepatocellular adenoma + hepatocellular carcinoma + neoplastic nodule, dosed 103 weeks, study length 104 weeks) of 665 mg/kg/day. The TD50 (rat, strain Fischer 344, males, by gavage, site: pancreatic islets + thyroid gland, lesion: islet-cell adenoma + follicular-cell adenoma + follicular-cell carcinoma, dosed 103 weeks, study length 104 weeks) was 67.7 mg/kg/day, the TD50 (rat, strain Fischer 344, males, by gavage, site: pancreatic islets, lesion: islet-cell adenoma + islet-cell carcinoma, dosed 103 weeks, study length 104 weeks) was 90.3 mg/kg/day and the TD50 (rat, strain Fischer 344, males, by gavage, site: pancreatic islets, lesion: islet-cell adenoma, dosed 103 weeks, study length 104 weeks) was 80.5 mg/kg/day. For the same molecule, the TD50 (rat, strain Fischer 344, males, by gavage, site: subcutaneous tissue, lesion: fibrosarcoma + fibroma, dosed 103 weeks, study length 104 weeks) was 195 mg/kg/day, the TD50 (rat, strain Fischer 344, males, by gavage, site: testis, lesion: interstitial-cell tumor, dosed 103 weeks, study length 104 weeks) was 39.8 mg/kg/day and the TD50 (rat, strain Fischer 344, males, by gavage, site: thyroid gland, lesion: follicular-cell adenoma + follicular-cell carcinoma, dosed 103 weeks, study length 104 weeks) was 113 mg/kg/day. For the same molecule, the TD50 (rat, strain Fischer 344, males, by gavage, site: thyroid gland, lesion: follicular-cell adenoma, dosed 103 weeks, study length 104 weeks) was 206 mg/kg/day and the TD50 (rat, strain Fischer 344, males, by gavage, site: thyroid gland, lesion: follicular-cell carcinoma, dosed 103 weeks, study length 104 weeks) was 236 mg/kg/day.

— PubChem BioAssay AID1745844 (Carcinogenic Potency Database (CPDB), 2022)
